# Paper PMC9742639, “Inhibition of glycogen synthase kinase-3-beta (GSK3β) blocks nucleocapsid phosphorylation and SARS-CoV-2 replication” (Molecular Biomedicine, 2022)
# Where “and” joins values, the source holds several entries; their conditions need not be identical. Equal values may be shown once. Read-outs that look alike come from different tables or passages of the source. Square brackets hold non-standard residues; d marks the D form. Primed or numbered codes have the meaning given here. Ends that are not written are not given here. pS′ = not defined here; pT′ = not defined here
# Legend:
# PKACa = PKACa (Homo sapiens, UniProt P17612); assay: In vitro phosphorylation of nucleocapsid peptides, ADP-Glo; format: biochemical; conditions: kinase with ATP alone, no peptide = 100; peptide ~250 μM, ATP 250 μM, 30 min
# PKCa = target: T1, PKCa (Homo sapiens, UniProt P17252); assay: as above; format: biochemical; conditions: for Phosphorylation by PKCa (Table 2): Mean ± Standard deviation, n = 3, no peptide substrate 1282 ± 51; for Relative phosphorylation by PKCa: kinase with ATP alone, no peptide = 100, peptide ~250 μM, ATP 250 μM, 30 min
# T1 construct: GST; purchased SignalChem P61-18G
# GSK3b = target: T2, GSK3b (Homo sapiens, UniProt P49841); assay: as above; format: biochemical; conditions: for Phosphorylation by GSK3b (Table 2): Mean ± Standard deviation, n = 3, no peptide substrate 1995 ± 133; for Relative phosphorylation by GSK3b: kinase with ATP alone, no peptide = 100, peptide ~250 μM, ATP 250 μM, 30 min
# T2 construct: GST; purchased SignalChem G09-10G
# T2 sequence (P49841 whole entry): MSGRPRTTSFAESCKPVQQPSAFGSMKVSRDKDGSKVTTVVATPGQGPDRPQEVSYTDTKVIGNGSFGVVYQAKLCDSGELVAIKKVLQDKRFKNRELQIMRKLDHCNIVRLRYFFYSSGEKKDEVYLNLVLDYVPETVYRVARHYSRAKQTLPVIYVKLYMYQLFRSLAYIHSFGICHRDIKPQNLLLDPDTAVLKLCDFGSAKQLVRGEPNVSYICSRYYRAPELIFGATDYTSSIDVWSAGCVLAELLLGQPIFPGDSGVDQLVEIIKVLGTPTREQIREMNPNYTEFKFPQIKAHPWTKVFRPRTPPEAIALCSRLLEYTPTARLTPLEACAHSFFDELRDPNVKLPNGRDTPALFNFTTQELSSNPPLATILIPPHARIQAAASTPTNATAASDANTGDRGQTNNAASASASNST
# HCoV-229E [1] = assay: High-content screen / dose-response of HCoV-229E-infected Huh-7.5.1 cells (dsRNA); format: cell-based
# SARS-CoV-2 [2] = assay: SARS-CoV-2 infection of primary donor-derived colon organoids (intracellular N protein); format: cell-based; conditions: donor intestinal organoids monolayer, 72 hrs post-infection
# SARS-CoV-2 [3] = assay: Viral titer from 48-h SARS-CoV-2-infected Calu-3 cells; format: cell-based; conditions: 48 h after infection and treatment, 100 μM
# SARS-CoV-2 [4] = format: cell-based
# Huh-7.5.1 cells = assay: Cell loss / toxicity to Huh-7.5.1 host cells (nuclei count); conditions: 10 µM, infected Huh-7.5.1 cells
# Method: (§1) Total number of cells (via nuclei staining) and number of virus-infected cells (via dsRNA and nucleocapsid staining) was measured using the CellInsight CX5 High Content Screening platform (Thermo Fisher), as previously described [24]. Briefly, cell nuclei are stained with Hoechst (33342) for detection at the 350/461 nm wavelength and a region of interest (ROI) marks each cell, which is verified using cell membrane imaging in the bright field. The ROI includes the areas where dsRNA (485/521 nm wavelength) and SARS-CoV-2 nucleocapsid (533/588 nm wavelength) are localized. The software (HCS Studio Cell Analysis Software, version 4.0) tallies ROIs where dsRNA and nucleocapsid are located within stained nuclei by compiling pixel area and intensity measurements. The fluorescence emitted by the dsRNA and nucleocapsid are then quantified for each well. The total intensity of each well indicates the viral load and is normalized against non-infected cells and untreated infected cells. Cell loss (from cytotoxicity or poor adherence) was quantified using the same stain (Hoechst 33342) and was used to normalize the changes in viral load resulting from a decrease in cell numbers. Based on average variation in control treatments between experiments, significant cell loss was considered a loss of > 20% cells relative to the non-infected control.
# SARS-CoV-2 [5] = assay: High-content screen / dose-response of SARS-CoV-2-infected Huh-7.5.1 cells (dsRNA, nucleocapsid); format: cell-based; conditions: for ED50, activity against SARS-CoV-2 / inhibition at 10 µM: Huh-7.5.1 cells; for ED50, activity against SARS-CoV-2: intracellular N protein; for inhibition at 10 µM: Severe acute respiratory syndrome coronavirus 2
# HCoV-229E [6] = assay: Chou-Talalay synergy with Remdesivir in HCoV-229E-infected cells; format: cell-based; conditions: Chou-Talalay method, CI < 1 synergistic
# Method: Statistical analyses were performed and figures were prepared using GraphPad Prism 9™ (GraphPad Software, Inc.). Imbedded blots and fluorescent images were generated using GIMP^©. Chou-Talalay synergy analysis was performed using CompuSyn (ComboSyn Inc.). CI values < 1 are defined as synergistic, CI = 1 as additive, and CI > 1 as antagonistic.
# Supplemental Figure S4: Synergy experiment. Dose-response combination of Remdesivir (Rem) and T-1686568 (T2) using CompuSyn V1.0. Representative experiment of two independent experiments.
# GSK3β = target: T3, GSK3β (Homo sapiens, UniProt P49841); assay: In vitro inhibition of GSK3β, ADP-Glo Kinase Assay; format: biochemical; conditions: read-out: IC50, GSK3β enzymatic activity
# T3 construct: GST; purchased SignalChem G09-10G
# T3 sequence (P49841 whole entry): as above
# Method: All protein kinase reactions were performed with the ADP-Glo Kinase Assay from ProMega (Madison, WI, USA). Substrate peptides were assayed at a final concentration of ~ 250 μM with 250 μM ATP for 30 min at 30 °C in a final volume of 25 μL. Recombinant nucleocapsid was similarly assayed at a final concentration of 13.4 ng/μL. The concentrations of recombinant protein kinases used were ~ 2 ng/μL.
# Supplemental Figure S3: in vitro inhibition of GSK3. ADP-Glo^TM Kinase Assay normalized to the negative control (100% kinase activity), dose-response was analyzed by non-linear regression.
# in vitro = conditions: human
# Method: as §1
# CK1g1 = target: T4, CK1g1 (Homo sapiens, UniProt Q9HCP0); assay: In vitro phosphorylation of nucleocapsid peptides, ADP-Glo; format: biochemical; conditions: kinase with ATP alone, no peptide = 100; peptide ~250 μM, ATP 250 μM, 30 min
# T4 construct: GST; purchased SignalChem C68-11G
# T4 sequence (Q9HCP0 whole entry): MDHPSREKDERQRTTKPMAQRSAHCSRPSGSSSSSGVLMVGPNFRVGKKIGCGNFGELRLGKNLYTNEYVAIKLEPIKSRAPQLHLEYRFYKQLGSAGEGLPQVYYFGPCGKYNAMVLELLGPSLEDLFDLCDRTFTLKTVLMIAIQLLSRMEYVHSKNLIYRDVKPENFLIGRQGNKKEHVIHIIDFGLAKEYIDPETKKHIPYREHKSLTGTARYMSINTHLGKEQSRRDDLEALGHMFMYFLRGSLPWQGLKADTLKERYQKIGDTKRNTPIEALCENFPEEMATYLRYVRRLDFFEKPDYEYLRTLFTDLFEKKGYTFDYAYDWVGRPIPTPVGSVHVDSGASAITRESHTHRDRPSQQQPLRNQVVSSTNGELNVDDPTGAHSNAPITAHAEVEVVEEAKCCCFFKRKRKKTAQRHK
# ERK1 = target: T5, ERK1 (Homo sapiens, UniProt P27361); assay: as above; format: biochemical; conditions: kinase with ATP alone, no peptide = 100; peptide ~250 μM, ATP 250 μM, 30 min
# T5 construct: GST; purchased SignalChem M29-10G
# T5 sequence (P27361 whole entry): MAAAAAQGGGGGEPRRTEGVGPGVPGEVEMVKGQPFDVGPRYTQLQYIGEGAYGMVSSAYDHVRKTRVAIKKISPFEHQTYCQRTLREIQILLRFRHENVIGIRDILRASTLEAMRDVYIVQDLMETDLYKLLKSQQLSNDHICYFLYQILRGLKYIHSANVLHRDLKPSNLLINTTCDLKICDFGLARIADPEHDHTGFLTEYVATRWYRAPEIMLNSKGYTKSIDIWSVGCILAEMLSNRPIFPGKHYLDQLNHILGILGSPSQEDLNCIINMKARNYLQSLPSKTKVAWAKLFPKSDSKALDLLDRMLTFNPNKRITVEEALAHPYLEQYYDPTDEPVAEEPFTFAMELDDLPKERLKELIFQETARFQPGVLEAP
# CK1d = target: T6, CK1d (Homo sapiens, UniProt P48730); assay: as above; format: biochemical; conditions: kinase with ATP alone, no peptide = 100; peptide ~250 μM, ATP 250 μM, 30 min
# T6 construct: GST; purchased SignalChem C65-10G
# T6 sequence (P48730 whole entry): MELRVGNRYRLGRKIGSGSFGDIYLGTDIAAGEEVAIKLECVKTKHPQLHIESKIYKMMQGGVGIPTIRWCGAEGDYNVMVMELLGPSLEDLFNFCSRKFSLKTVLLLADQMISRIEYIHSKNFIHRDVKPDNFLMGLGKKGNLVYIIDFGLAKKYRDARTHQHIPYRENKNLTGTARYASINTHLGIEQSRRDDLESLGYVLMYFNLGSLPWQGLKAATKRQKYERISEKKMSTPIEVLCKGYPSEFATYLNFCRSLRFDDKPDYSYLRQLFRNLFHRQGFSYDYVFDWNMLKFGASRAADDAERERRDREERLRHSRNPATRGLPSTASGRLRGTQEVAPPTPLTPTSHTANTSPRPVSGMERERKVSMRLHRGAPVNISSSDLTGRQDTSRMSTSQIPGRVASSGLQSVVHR
# CDK2 + Cyclin A2 = CDK2 + Cyclin A2 (Homo sapiens, UniProt P24941); assay: as above; format: biochemical; conditions: kinase with ATP alone, no peptide = 100; peptide ~250 μM, ATP 250 μM, 30 min
# CK2a1 = target: T7, CK2a1 (Homo sapiens, UniProt P68400); assay: as above; format: biochemical; conditions: kinase with ATP alone, no peptide = 100; peptide ~250 μM, ATP 250 μM, 30 min
# T7 construct: GST; purchased SignalChem C70-10G
# T7 sequence (P68400 whole entry): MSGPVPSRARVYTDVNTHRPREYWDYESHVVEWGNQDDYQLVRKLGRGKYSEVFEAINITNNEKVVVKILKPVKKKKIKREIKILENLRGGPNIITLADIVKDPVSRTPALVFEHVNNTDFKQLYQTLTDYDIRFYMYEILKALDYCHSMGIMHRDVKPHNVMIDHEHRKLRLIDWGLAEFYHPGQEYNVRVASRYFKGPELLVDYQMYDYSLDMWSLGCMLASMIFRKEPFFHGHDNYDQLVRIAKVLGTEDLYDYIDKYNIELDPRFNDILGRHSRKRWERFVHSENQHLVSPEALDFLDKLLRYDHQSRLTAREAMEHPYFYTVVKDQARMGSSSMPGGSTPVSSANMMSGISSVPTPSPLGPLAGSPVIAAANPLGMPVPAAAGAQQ
# CK1a1 = target: T8, CK1a1 (Homo sapiens, UniProt P48729); assay: as above; format: biochemical; conditions: kinase with ATP alone, no peptide = 100; peptide ~250 μM, ATP 250 μM, 30 min
# T8 construct: GST; purchased SignalChem C64-10G
# T8 sequence (P48729 whole entry): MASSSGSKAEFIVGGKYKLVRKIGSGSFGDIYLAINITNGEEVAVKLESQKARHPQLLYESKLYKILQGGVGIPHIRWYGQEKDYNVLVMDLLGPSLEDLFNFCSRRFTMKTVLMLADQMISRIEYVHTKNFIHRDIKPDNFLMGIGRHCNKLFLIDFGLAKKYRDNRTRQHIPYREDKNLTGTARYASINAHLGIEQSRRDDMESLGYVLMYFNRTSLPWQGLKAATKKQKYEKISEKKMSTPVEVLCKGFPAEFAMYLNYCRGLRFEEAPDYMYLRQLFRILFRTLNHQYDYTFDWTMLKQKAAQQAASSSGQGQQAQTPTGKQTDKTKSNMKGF
# [7] = average of screens 1 and 2, read-out: Average SARS-CoV-2 Nucleocapsid inhibition
# [8] = screen 1, read-out: SARS-CoV-2 inhibition (% Nucleocapsid) 1
# [9] = screen 2, read-out: SARS-CoV-2 inhibition (% Nucleocapsid) 2
# [10] = read-out: SARS-CoV-2 inhibition (% dsRNA)
Compound,Relative phosphorylation by PKACa (PKACa),Phosphorylation by PKCa (Table 2) (PKCa),Relative phosphorylation by PKCa (PKCa),Phosphorylation by GSK3b (Table 2) (GSK3b),Relative phosphorylation by GSK3b (GSK3b),"ED50, activity against HCoV-229E (HCoV-229E [1])",Average cell loss (%) (Huh-7.5.1 cells),"ED50, activity against SARS-CoV-2 (SARS-CoV-2 [5])",inhibition at 10 µM (SARS-CoV-2 [5]; [7]) [%],inhibition at 10 µM (SARS-CoV-2 [5]; [8]) [%],inhibition at 10 µM (SARS-CoV-2 [5]; [9]) [%],inhibition at 10 µM (SARS-CoV-2 [5]; [10]) [%],CC50 (in vitro) [µM],other results
"RGGSQASSRSS(pS)RS (RGGSQASSRSS[pS′]RS) [SCV2-N [177-190] - pS188, synthetic peptide modeled after SARS-CoV-2 nucleocapsid phosphorylation sites, pre-phosphorylated at S188]",128,3861 ± 71,389,"24,585 ± 645",1209,–,–,–,–,–,–,–,–,–
CSc1ccc(-n2cnc3ccc(-c4nnc(CCc5cccc(C#N)c5)o4)cc32)cc1 [P-0717632],–,–,–,–,–,~ 3 μM,24.4,2.7 µM,79.3,75.2,83.3,68.2,> 100,"effect on intracellular N protein levels (SARS-CoV-2 [2]): greatly decrease intracellular N protein levels; reduction of viral titres (SARS-CoV-2 [3]): 2 log; N protein in remaining infected cells (SARS-CoV-2 [4]): accumulated; S protein expression (SARS-CoV-2 [4]): reduced; ED50, activity against SARS-CoV-2 (SARS-CoV-2 [5]; listed as T-1686568): ~ 3 μM; ED80 (SARS-CoV-2 [5]; infected Huh-7.5.1 cells): 10 µM; average Combination Index (CI) (HCoV-229E [6]): 0.7; IC50 (GSK3β): 0.102 µM"
C[S+]([O-])c1ccc(-c2coc3ccc(-c4nnc(SCc5cccc(F)c5)o4)cc23)cc1 (stereo not shown) [P-7657632],–,–,–,–,–,~ 3 μM,25.4,~ 3 μM and 2.9 μM,93.1,100,86.2,100,39,–
"RNSTPGSSRGT(pS)PAR (RNSTPGSSRGT[pS′]PAR) [SCV2-N [195-209] - pS206, synthetic peptide modeled after SARS-CoV-2 nucleocapsid phosphorylation sites, pre-phosphorylated at S206]",205,1531 ± 47,–,"24,082 ± 381",1068,–,–,–,–,–,–,–,–,Relative phosphorylation by CK1g1 (CK1g1): 105; Relative phosphorylation by ERK1 (ERK1): 100; Relative phosphorylation by CK1d (CK1d): 105; Relative phosphorylation by CDK2 + Cyclin A2 (CDK2 + Cyclin A2): 100
"SQASSRSSSR(pS)RNS (SQASSRSSSR[pS′]RNS) [SCV2-N [180-193] - pS190, synthetic peptide modeled after SARS-CoV-2 nucleocapsid phosphorylation sites, pre-phosphorylated at S190]",312,4161 ± 66,418,2957 ± 3,111,–,–,–,–,–,–,–,–,Relative phosphorylation by CK2a1 (CK2a1): 100
"SSRSRNSSRNS(pT)PG (SSRSRNSSRNS[pT′]PG) [SCV2-N [187-200] - pT198, synthetic peptide modeled after SARS-CoV-2 nucleocapsid phosphorylation sites, pre-phosphorylated at T198]",157,7032 ± 319,553,"23,031 ± 486",1042,–,–,–,–,–,–,–,–,Relative phosphorylation by CK1a1 (CK1a1): 250; Relative phosphorylation by ERK1 (ERK1): 100; Relative phosphorylation by CK1d (CK1d): 152; Relative phosphorylation by CK2a1 (CK2a1): 102; Relative phosphorylation by CDK2 + Cyclin A2 (CDK2 + Cyclin A2): 101
CSc1ccc(-c2coc3ccc(-c4nnc(N)o4)cc23)cc1Cl [P-9071942],–,–,–,–,–,~ 3 μM,29.9,~ 3 μM and 3.3 μM,94.5,100,89.1,100,27,–
